Laboratory results as given in patent publication US12414951B2, “Use of compound in preparation of medicament for prophylaxis and treatment of inflammatory tissue damage” (Sichuan University, priority 2022, dated 2025).

Legend:
IRF1 = biological target: T1, IRF1 (Homo sapiens, UniProt P10914); test: IRF1 transcriptional activity, dual-luciferase reporter system in irradiated HaCaT cells; format: cell-based; conditions: 10 μM 24 h before irradiation, X-ray 20 Gy, detection 1 h after irradiation, P<0.01
T1 construct: Human skin keratinocytes (HaCaT cells) were infected in vitro according to a titer of 100 MOI; endogenous in cells; host or cells: HaCaT human skin keratinocytes infected with an h-IRF1 promoter-rluc reporter adenovirus
T1 sequence (P10914 1-325): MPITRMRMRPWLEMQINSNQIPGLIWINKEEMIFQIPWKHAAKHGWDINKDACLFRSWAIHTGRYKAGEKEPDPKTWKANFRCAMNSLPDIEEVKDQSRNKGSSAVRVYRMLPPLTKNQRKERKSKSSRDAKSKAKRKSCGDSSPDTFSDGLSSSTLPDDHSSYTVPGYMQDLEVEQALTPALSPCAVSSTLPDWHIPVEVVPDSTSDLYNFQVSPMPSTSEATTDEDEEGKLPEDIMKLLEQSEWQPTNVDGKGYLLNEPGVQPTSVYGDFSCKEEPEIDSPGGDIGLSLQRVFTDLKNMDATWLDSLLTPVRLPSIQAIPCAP
Text: To determine the inhibitory effect of the compound (IRSKIN-1) on the transcriptional activity of IRF1, Hanbio Biotechnology (Shanghai) Co., Ltd. was entrusted to construct an h-IRF1 promoter-rluc adenovirus vector. The vector has four binding sites of IRF1, and the downstream of the promoter is a luciferase reporter gene. The virus was constructed based on a dual-luciferase reporter system, and the transcriptional activity of IRF1 could be directly reflected by the luciferase activity. Human skin keratinocytes (HaCaT cells) were infected in vitro according to a titer of 100 MOI, and the virus infection efficiency met the experimental requirement 48 h after infection.
A microplate reader PROMEGA and the corresponding substrates were used for detection 1 h after irradiation.

irradiated skin cells [1] = test: colony formation test of irradiated skin cells; format: cell-based; conditions: 10 μM for 24 h before irradiation; X-ray 2 Gy once or twice or Sr 90 4 Gy once; vs DMSO, P<0.01
Experimental: To determine the promoting effect of IRF1 inhibitor IRSKIN-1 on irradiated skin cell proliferation, cells were treated with 10 μM IRSKIN-1 or equivalent DMSO for 24 h before irradiation, respectively; subsequently, the cells were subjected to fractionated irradiation at 2 Gy once or at 2 Gy twice or Sr 90 irradiation at 4 Gy once, respectively; subsequently, the effect of IRSKIN-1 on irradiated cell proliferation ability was evaluated by the colony formation test (2,500 cells were spread on each well of a 6-well plate).

irradiated skin cells [2] = test: mortality of irradiated skin cells by AV/PI staining; format: cell-based; conditions: 10 μM for 24 h before irradiation; 20 Gy X-ray once; 3 days after irradiation; vs DMSO, P<0.01
Experimental: To determine whether IRSKIN-1 reduces the mortality of irradiated skin cells, cells were treated with 10 μM IRSKIN-1 or equivalent DMSO for 24 h before irradiation, respectively; subsequently, the cells were irradiated with 20 Gy X-ray once, and the effect of IRSKIN-1 on irradiated cell proliferation ability was evaluated by AV/PI staining method 3 days after irradiation.

mouse primary skin cells = test: senescence of irradiated primary skin cells by β-galactosidase staining; format: cell-based; conditions: 10 μM for 24 h before irradiation; 20 Gy X-ray once; 3 days after irradiation; vs DMSO, P<0.01
Experimental: To determine whether IRSKIN-1 reduces the senescence rate of irradiated skin cells, mouse primary skin cell were isolated and cultured, cells were treated with 10 μM IRSKIN-1 or equivalent DMSO for 24 h before irradiation, respectively; subsequently, the cells were irradiated with 20 Gy X-ray once, and the effect of IRSKIN-1 on irradiated primary cell senescence was evaluated by β-galactosidase staining method 3 days after irradiation.

[3] = system: radiation-induced skin injury in C57 BL/6J mice; test: radiation-induced skin injury mouse model, subcutaneous injection; format: in vivo; conditions: 1 and 3 days before irradiation
Experimental: (§1) Male C57 BL/6J mice aged 6-8 weeks were purchased from GemPharmatech Co., Ltd. The mice were acclimatized and randomized into two groups (6 mice per group); the mice were subcutaneously injected with IRSKIN-1 (which was dissolved in DMSO to prepare a 50 mM solution, 100 μL/time) and equivalent DMSO once 1 and 3 days before irradiation, respectively; based on 1% of the body weight of each mouse, the mouse was anesthetized by intraperitoneal injection of 1% chloral hydrate, the skin of hind limbs of the mouse was depilated, and the mouse was immobilized on a board to reduce accidental movements during irradiation.
(§2) The skin of limbs of mice was irradiated with 6 MeV electron ray generated by Varian 23EX Linear Accelerator (Varian, the USA); the surface was covered with a 1 cm thick bolus, and non-irradiated sites were shielded with a lead plate; the irradiation area was approximately 30×40 mm, the absorbed dose rate was 750 cGy/min, and the total dose was 45 Gy; and the range of the irradiated area was outlined with a marker pen during irradiation.

[4] = system: inflammatory factors in irradiated skin tissue; test: inflammation microarray of irradiated skin tissue of treated mice; format: in vivo, mouse; conditions: s.c. treatment, FIG. 10
Experimental: as §1, §2

[5] = system: Caspase1, GSDMD and IL1 in irradiated skin cells; test: Western blot of pyroptosis pathway proteins in irradiated skin cells; format: cell-based; conditions: 10 μM for 24 h before irradiation, 20 Gy X-ray once
Experimental: To determine the mechanism of the inhibitory effect of IRF1 inhibitor IRSKIN-1 on inflammatory death in the irradiated skin cells, cells were treated with 10 μM IRSKIN-1 or equivalent DMSO for 24 h before irradiation, respectively; subsequently, the cells were irradiated with 20 Gy X-ray once, and changes in key proteins of cell pyroptosis pathway, Caspase1 and GSDMD, and inflammatory factor IL1 were detected by Western blot, so as to determine the inhibitory effect of IRSKIN-1 on inflammatory death in the irradiated skin cells and its mechanism.

[6] = s.c. 50 mM in DMSO 100 μL/time, 45 Gy electron ray

With `O=C(CCn1cnc2ccccc2c1=O)Nc1ccc(S(=O)(=O)N2CCCCC2)cc1` [IRSKIN-1, 3-(4-oxo-3 (4H)-quinazolinyl)-N-[4-(1-piperidinylsulfonyl)phenyl]propanamide] the “irradiated IRF1 transcriptional activity (luciferase activity) vs DMSO-treated irradiation group” value (IRF1) was “significantly lower”, the “clone formation ability of irradiated skin cells” value (irradiated skin cells [1]) was “significantly improve” and the “cell mortality after X-ray irradiation (AV/PI staining)” value (irradiated skin cells [2]) was “reduce cell mortality”. For the same compound, the “β-galactosidase positive rate (senescence) of mouse primary cells” value (mouse primary skin cells) was “reduce the β-galactosidase positive rate”, the “wet ulcers of the skin” value ([3]; s.c. 50 mM 100 μL/time, 45 Gy, FIG. 8, 15 and 30 days after irradiation) was “wet ulcers appeared in only fewer areas” and the “progression scores of radiation-induced skin injury” value ([3]; s.c. 50 mM 100 μL/time, 45 Gy, FIG. 9) was “reducing progression scores”. The “progression of radiation-induced skin injury vs DMSO group” value [3, 6] was “slower”, the “ulcer wound area vs DMSO group” value [3, 6] was “smaller ulcer wound area” and the “expression of BLC in skin tissue” value [4] was “downregulated”. For the same compound, the “expression of G-CSF in skin tissue” value [4] was “upregulated”, the “expression of MIP-1a in skin tissue” value [4] was “upregulated” and the “expression of TNF-R II in skin tissue” value [4] was “upregulated”. The “hydrolysis of Caspase1” value [5] was “inhibit the hydrolysis”, the “hydrolysis of GSDMD” value [5] was “inhibit the hydrolysis” and the “hydrolysis of IL1” value [5] was “inhibit the hydrolysis”.
